In US9365522B2, “Pyrazole amide derivative” (AMGEN INC., priority 2015, dated 2016):

molecular target: T1, human RORγ-LBD (Homo sapiens, UniProt P51449); experiment: ROR gamma coactivator peptide recruitment Alphascreen assay (RORγ-LBD binding to GRIP1 coactivator peptide); assay type: biochemical; conditions: 5 nM human RORγ-LBD, 30 nM 7-β-hydroxycholesterol, 50 nM biotinylated GRIP1 coactivator peptide, overnight incubation at room temperature; read-out: result (pIC50, RORγ coactivator peptide recruitment Alphascreen assay) (converted)
T1 construct: made in house; host or cells: E. coli (BL-21)
T1 sequence (P51449 262-518): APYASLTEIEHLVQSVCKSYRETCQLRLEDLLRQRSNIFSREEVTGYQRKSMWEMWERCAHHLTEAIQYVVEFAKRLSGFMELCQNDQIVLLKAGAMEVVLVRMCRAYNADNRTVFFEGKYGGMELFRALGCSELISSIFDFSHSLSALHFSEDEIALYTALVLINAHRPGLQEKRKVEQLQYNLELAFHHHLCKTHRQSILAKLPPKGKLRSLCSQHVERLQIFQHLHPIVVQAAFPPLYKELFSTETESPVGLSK
How it was run: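 Alphascreen proximity read-out after overnight room-temperature incubation, yielding pIC50 from 1-in-2 compound series (2.5% DMSO final). Mixture: 50 nM biotin-GRIP1 peptide, 30 nM 7-β-hydroxycholesterol agonist, 5 nM recombinant 6×His:Flag human RORγ-LBD (aa 262-518), 50 mM HEPES pH 7.4.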

In order of rising IC50:
1. Cc1cc(Cl)c(C(=O)CN(CC2(C)CCCC2)C(=O)c2cnn([C@H]3CC[C@](C)(C(=O)O)CC3)c2C(F)(F)F)c(Cl)c1 [Example 709, trans-4-(4-((2-(2,6-dichloro-4-methylphenyl)-2-oxoethyl)((1-methylcyclopentyl)methyl)carbamoyl)-5-(trifluoromethyl)-1H-pyrazol-1-yl)-1-methylcyclohexanecarboxylic acid]  0.891 nM
2. CC1(CN(CC(=O)c2c(Cl)cc(F)cc2Cl)C(=O)c2cnn([C@H]3CC[C@](C)(C(=O)O)CC3)c2C(F)(F)F)CCCCC1 [Example 696, trans-4-(4-((2-(2,6-dichloro-4-fluorophenyl)-2-oxoethyl)((1-methylcyclohexyl)methyl)carbamoyl)-5-(trifluoromethyl)-1H-pyrazol-1-yl)-1-methylcyclohexanecarboxylic acid]  1.62 nM
3. CC1(CN(CC(=O)c2c(Cl)cc(F)cc2Cl)C(=O)c2cnn([C@H]3CC[C@](C)(C(=O)O)CC3)c2C(F)(F)F)CCC1 [Example 691, trans-4-(4-((2-(2,6-dichloro-4-fluorophenyl)-2-oxoethyl)((1-methylcyclobutyl)methyl)carbamoyl)-5-(trifluoromethyl)-1H-pyrazol-1-yl)-1-methylcyclohexanecarboxylic acid]  1.66 nM
4. CC1(CN(CC(=O)c2c(Cl)cncc2Cl)C(=O)c2cnn([C@H]3CC[C@](C)(C(=O)O)CC3)c2C(F)(F)F)CCCC1 [Example 711, trans-4-(4-((2-(3,5-dichloro-4-pyridinyl)-2-oxoethyl)((1-methylcyclopentyl)methyl)carbamoyl)-5-(trifluoromethyl)-1H-pyrazol-1-yl)-1-methylcyclohexanecarboxylic acid]  2.04 nM
5. C[C@]1(C(=O)O)CC[C@H](n2ncc(C(=O)N(CC(=O)c3c(Cl)cc(F)cc3Cl)CC3CCCC3)c2C(F)(F)F)CC1 [Example 698, trans-4-(4-((cyclopentylmethyl)(2-(2,6-dichloro-4-fluorophenyl)-2-oxoethyl)carbamoyl)-5-(trifluoromethyl)-1H-pyrazol-1-yl)-1-methylcyclohexanecarboxylic acid]  2.09 nM
6. Cc1cc(Cl)c(C(=O)CN(CCC(C)C)C(=O)c2cnn([C@H]3CC[C@](C)(C(=O)O)CC3)c2C(F)(F)F)c(Cl)c1 [Example 704, trans-4-(4-((2-(2,6-dichloro-4-methylphenyl)-2-oxoethyl)(3-methylbutyl)carbamoyl)-5-(trifluoromethyl)-1H-pyrazol-1-yl)-1-methylcyclohexanecarboxylic acid]  2.45 nM
7. CC(C)(CN(CC(=O)c1c(Cl)cncc1Cl)C(=O)c1cnn([C@H]2CC[C@](C)(C(=O)O)CC2)c1C(F)(F)F)C(F)(F)F [Example 692, trans-4-(4-((2-(3,5-dichloro-4-pyridinyl)-2-oxoethyl)(3,3,3-trifluoro-2,2-dimethylpropyl)carbamoyl)-5-(trifluoromethyl)-1H-pyrazol-1-yl)-1-methylcyclohexanecarboxylic acid]  3.24 nM
8. C[C@]1(C(=O)O)CC[C@H](n2ncc(C(=O)N(CC(=O)c3c(Cl)cc(F)cc3Cl)CC3CCC3)c2C(F)(F)F)CC1 [Example 694, trans-4-(4-((cyclobutylmethyl)(2-(2,6-dichloro-4-fluorophenyl)-2-oxoethyl)carbamoyl)-5-(trifluoromethyl)-1H-pyrazol-1-yl)-1-methylcyclohexanecarboxylic acid]  3.98 nM
9. Cc1cc(Cl)c(C(=O)CN(C(=O)c2cnn([C@H]3CC[C@](C)(C(=O)O)CC3)c2C(F)(F)F)[C@H]2C[C@@H](C(C)(C)C)C2)c(Cl)c1 [Example 689, trans-4-(4-((2-(2,6-dichloro-4-methylphenyl)-2-oxoethyl)(cis-3-(2-methyl-2-propanyl)cyclobutyl)carbamoyl)-5-(trifluoromethyl)-1H-pyrazol-1-yl)-1-methylcyclohexanecarboxylic acid]  4.17 nM
10. Cc1cc(Cl)c(C(=O)CN(CC2CC2)C(=O)c2cnn([C@H]3CC[C@](C)(C(=O)O)CC3)c2C(F)(F)F)c(Cl)c1 [Example 707, trans-4-(4-((cyclopropylmethyl)(2-(2,6-dichloro-4-methylphenyl)-2-oxoethyl)carbamoyl)-5-(trifluoromethyl)-1H-pyrazol-1-yl)-1-methylcyclohexanecarboxylic acid]  6.17 nM
11. C[C@]1(C(=O)O)CC[C@H](n2ncc(C(=O)N(CC(=O)c3c(Cl)cc(F)cc3Cl)CC3(F)CC3)c2C(F)(F)F)CC1 [Example 690, trans-4-(4-((2-(2,6-dichloro-4-fluorophenyl)-2-oxoethyl)((1-fluorocyclopropyl)methyl)carbamoyl)-5-(trifluoromethyl)-1H-pyrazol-1-yl)-1-methylcyclohexanecarboxylic acid]  6.76 nM
12. Cc1cc(C)c(C(=O)CN(Cc2cc(F)cc(F)c2)C(=O)c2cnn([C@H]3CC[C@](C)(C(=O)O)CC3)c2C(F)(F)F)c(Cl)n1 [Example 702, trans-4-(4-((2-(2-chloro-4,6-dimethyl-3-pyridinyl)-2-oxoethyl)(3,5-difluorobenzyl)carbamoyl)-5-(trifluoromethyl)-1H-pyrazol-1-yl)-1-methylcyclohexanecarboxylic acid]  7.94 nM
13. C[C@]1(C(=O)O)CC[C@H](n2ncc(C(=O)N(CC(=O)c3c(Cl)cc(F)cc3Cl)CC3CC3)c2C(F)(F)F)CC1 [Example 695, trans-4-(4-((cyclopropylmethyl)(2-(2,6-dichloro-4-fluorophenyl)-2-oxoethyl)carbamoyl)-5-(trifluoromethyl)-1H-pyrazol-1-yl)-1-methylcyclohexanecarboxylic acid]  10 nM
14. CC(C)(C)CN(CC(=O)c1c(Cl)cnc(Cl)c1Cl)C(=O)c1cnn([C@H]2CC[C@](C)(C(=O)O)CC2)c1C(F)(F)F [Example 697, trans-4-(4-((2,2-dimethylpropyl)(2-oxo-2-(2,3,5-trichloro-4-pyridinyl)ethyl)carbamoyl)-5-(trifluoromethyl)-1H-pyrazol-1-yl)-1-methylcyclohexanecarboxylic acid]  12.9 nM
15. C[C@]1(C(=O)O)CC[C@H](n2ncc(C(=O)N(CC(=O)c3c(Cl)cncc3Cl)CC3(F)CC4(CC4)C3)c2C(F)(F)F)CC1 [Example 712, trans-4-(4-((2-(3,5-dichloro-4-pyridinyl)-2-oxoethyl)((5-fluorospiro[2.3]hex-5-yl)methyl)carbamoyl)-5-(trifluoromethyl)-1H-pyrazol-1-yl)-1-methylcyclohexanecarboxylic acid]  12.9 nM
16. CC(C)CCN(CC(=O)c1c(Cl)cncc1Cl)C(=O)c1cnn([C@H]2CC[C@](C)(C(=O)O)CC2)c1C(F)(F)F [Example 700, trans-4-(4-((2-(3,5-dichloro-4-pyridinyl)-2-oxoethyl)(3-methylbutyl)carbamoyl)-5-(trifluoromethyl)-1H-pyrazol-1-yl)-1-methylcyclohexanecarboxylic acid]  13.2 nM
17. C[C@]1(C(=O)O)CC[C@H](n2ncc(C(=O)N(CC(=O)c3c(Cl)cncc3Cl)CC3CC3)c2C(F)(F)F)CC1 [Example 710, trans-4-(4-((cyclopropylmethyl) (2-(3,5-dichloro-4-pyridinyl)-2-oxoethyl)carbamoyl)-5-(trifluoromethyl)-1H-pyrazol-1-yl)-1-methylcyclohexanecarboxylic acid]  27.5 nM
18. C[C@@H]1CC[C@@H](CN(CC(=O)c2c(Cl)cncc2Cl)C(=O)c2cnn([C@H]3CC[C@](C)(C(=O)O)CC3)c2C(F)(F)F)O1 [Example 706, trans-4-(4-((2-(3,5-dichloro-4-pyridinyl)-2-oxoethyl)(((2S,5R)-5-methyltetrahydro-2-furanyl)methyl)carbamoyl)-5-(trifluoromethyl)-1H-pyrazol-1-yl)-1-methylcyclohexanecarboxylic acid]  32.4 nM
19. CC(C)(C)[C@H]1C[C@@H](N(CC(=O)c2c(Cl)cncc2Cl)C(=O)c2cnn([C@H]3CC[C@](C)(C(=O)O)CC3)c2C(F)(F)F)C1 [Example 699, trans-4-(4-((2-(3,5-dichloro-4-pyridinyl)-2-oxoethyl)(cis-3-(2-methyl-2-propanyl)cyclobutyl)carbamoyl)-5-(trifluoromethyl)-1H-pyrazol-1-yl)-1-methylcyclohexanecarboxylic acid]  39.8 nM
20. Cc1cc(C)c(C(=O)CN(CC(C)(C)C)C(=O)c2cnn([C@H]3CC[C@](C)(C(=O)O)CC3)c2C(F)(F)F)c(Cl)n1 [Example 693, trans-4-(4-((2-(2-chloro-4,6-dimethyl-3-pyridinyl)-2-oxoethyl)(2,2-dimethylpropyl)carbamoyl)-5-(trifluoromethyl)-1H-pyrazol-1-yl)-1-methylcyclohexanecarboxylic acid]  43.7 nM
21. C[C@H]1CC[C@H](CN(CC(=O)c2c(Cl)cncc2Cl)C(=O)c2cnn([C@H]3CC[C@](C)(C(=O)O)CC3)c2C(F)(F)F)O1 [Example 705, trans-4-(4-((2-(3,5-dichloro-4-pyridinyl)-2-oxoethyl)(((2R,5S)-5-methyltetrahydro-2-furanyl)methyl)carbamoyl)-5-(trifluoromethyl)-1H-pyrazol-1-yl)-1-methylcyclohexanecarboxylic acid]  58.9 nM
22. Cc1cc(Cl)c(C(=O)CN(CC2(F)CC2)C(=O)c2cnn([C@H]3CC[C@](C)(C(=O)O)CC3)c2C(F)(F)F)c(Cl)n1 [Example 703, trans-4-(4-((2-(2,4-dichloro-6-methyl-3-pyridinyl)-2-oxoethyl)((1-fluorocyclopropyl)methyl)carbamoyl)-5-(trifluoromethyl)-1H-pyrazol-1-yl)-1-methylcyclohexanecarboxylic acid]  70.8 nM
